Experimental data as given in US8685958B2, “Therapeutic agents” (AstraZeneca AB, priority 2011, dated 2014).

target: Melanin Concentrating Hormone Receptor 1 (MCHR1) (Homo sapiens (Human), UniProt Q99705); test: MCHR1 receptor activation assay (GTPγ35S); assay type: biochemical; settings: not given
Sequence (Q99705 whole entry): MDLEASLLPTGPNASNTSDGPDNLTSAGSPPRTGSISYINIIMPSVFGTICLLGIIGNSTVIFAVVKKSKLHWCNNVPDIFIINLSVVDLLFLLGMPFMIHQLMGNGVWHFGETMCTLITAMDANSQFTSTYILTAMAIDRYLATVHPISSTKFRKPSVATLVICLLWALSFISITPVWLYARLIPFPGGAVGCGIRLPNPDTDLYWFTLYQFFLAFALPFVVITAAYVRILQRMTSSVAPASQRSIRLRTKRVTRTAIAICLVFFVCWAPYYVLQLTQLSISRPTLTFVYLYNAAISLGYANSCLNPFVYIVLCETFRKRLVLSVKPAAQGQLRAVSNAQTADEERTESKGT

Compound | IC50
COc1ccc(-c2nnc(C(=O)N3CC(Oc4ccc(CN5CC6(CCOC6)C5)cc4)C3)o2)cc1 [Example 5, (3-(4-(6-oxa-2-azaspiro[3.4]octan-2-ylmethyl)phenoxy)azetidin-1-yl)(5-(4-methoxyphenyl)-1,3,4-oxadiazol-2-yl)methanone] | 19 nM
O=C(c1nnc(-c2ccccc2)o1)N1CC(Oc2ccc(CN3CCC4(CCOC4)C3)cc2)C1 (centres unmarked) [Example 6, (3-(4-(2-oxa-7-azaspiro[4.4]nonan-7-ylmethyl)phenoxy)azetidin-1-yl)(5-phenyl-1,3,4-oxadiazol-2-yl)methanone] | 19 nM
Cc1cc(OC2CN(C(=O)c3nnc(-c4ccccc4)o3)C2)ccc1CN1CC2(CCOC2)C1 [Example 9, (3-(4-(6-oxa-2-azaspiro[3.4]octan-2-ylmethyl)-3-methylphenoxy)azetidin-1-yl)(5-phenyl-1,3,4-oxadiazol-2-yl)methanone] | 15 nM
Cc1cc(OC2CN(C(=O)c3nnc(-c4ccccc4)o3)C2)ccc1CN1CCC2(CCOC2)C1 (centres unmarked) [Example 10, (3-(4-(2-oxa-7-azaspiro[4.4]nonan-7-ylmethyl)-3-methylphenoxy)azetidin-1-yl)(5-phenyl-1,3,4-oxadiazol-2-yl)methanone] | 18 nM
Cc1cc(OC2CN(C(=O)c3nnc(-c4ccccc4)o3)C2)ccc1CN1CC2(CCCO2)C1 [Example 11, (3-(4-(5-oxa-2-azaspiro[3.4]octan-2-ylmethyl)-3-methylphenoxy)azetidin-1-yl)(5-phenyl-1,3,4-oxadiazol-2-yl)methanone] | 15 nM
O=C(c1nnc(-c2ccccc2)o1)N1CC(Oc2ccc(CN3CCCC34COC4)cc2)C1 [Example 13, (3-(4-(2-oxa-5-azaspiro[3.4]octan-5-ylmethyl)phenoxy)azetidin-1-yl)(5-phenyl-1,3,4-oxadiazol-2-yl)methanone] | 70 nM
COc1ccc(-c2nnc(C(=O)N3CC(Oc4ccc(CN5CCCC56CCOC6)cc4)C3)o2)cc1 (centres unmarked) [Example 14, (3-(4-(7-oxa-1-azaspiro[4.4]nonan-1-ylmethyl)phenoxy)azetidin-1-yl)(5-(4-methoxyphenyl)-1,3,4-oxadiazol-2-yl)methanone] | 23 nM
O=C(c1nnc(-c2ccccc2)o1)N1CC(Oc2ccc(CN3CCCC34CCOC4)cc2)C1 (centres unmarked) [Example 15, (3-(4-(7-oxa-1-azaspiro[4.4]nonan-1-ylmethyl)phenoxy)azetidin-1-yl)(5-phenyl-1,3,4-oxadiazol-2-yl)methanone] | 58 nM
COc1cc(OC2CN(C(=O)c3nnc(-c4ccccc4)o3)C2)ccc1CN1CCCC12COC2 [Example 16, (3-(4-(2-oxa-5-azaspiro[3.4]octan-5-ylmethyl)-3-methoxyphenoxy)azetidin-1-yl)(5-phenyl-1,3,4-oxadiazol-2-yl)methanone] | 34 nM
COc1cc(CN2CCCC23COC3)ccc1OC1CN(C(=O)c2nnc(-c3ccccc3)o2)C1 [Example 17, (3-(4-(2-oxa-5-azaspiro[3.4]octan-5-ylmethyl)-2-methoxyphenoxy)azetidin-1-yl)(5-phenyl-1,3,4-oxadiazol-2-yl)methanone] | 420 nM
COc1cc(CN2CCCC23COC3)ccc1OC1CN(C(=O)c2nnc(-c3ccc(C(F)F)cc3)o2)C1 [Example 18, (3-(4-(2-oxa-5-azaspiro[3.4]octan-5-ylmethyl)-2-methoxyphenoxy)azetidin-1-yl)(5-(4-(difluoromethyl)phenyl)-1,3,4-oxadiazol-2-yl)methanone] | 150 nM
COc1cc(OC2CN(C(=O)c3nnc(-c4ccc(C(F)F)cc4)o3)C2)ccc1CN1CCCC12COC2 [Example 19, (3-(4-(2-oxa-5-azaspiro[3.4]octan-5-ylmethyl)-3-methoxyphenoxy)azetidin-1-yl)(5-(4-(difluoromethyl)phenyl)-1,3,4-oxadiazol-2-yl)methanone] | 38 nM
O=C(c1nnc(-c2ccccc2)o1)N1CC(Oc2ccc(CN3CCC4(CCCO4)C3)cc2)C1 (centres unmarked) [Example 22, (3-(4-(1-Oxa-7-azaspiro[4.4]nonan-7-ylmethyl)phenoxy)azetidin-1-yl)(5-phenyl-1,3,4-oxadiazol-2-yl)methanone] | 23 nM

system: human hepatocytes; test: Estimation of covalent binding of small molecules to proteins in hepatocytes (fCVB); assay type: in vitro ADME; settings: binding of 3H- or 14C-labelled compound to cryopreserved human hepatocytes
Experimental: Estimation of Covalent Binding of Small Molecules to Proteins in Hepatocytes:
The assay is based on the modification of a published method (Day, S. H.; Mao, A.; White, R.; Schulz-Utermoehl, T.; Miller, R.; Beconi, M. G. (2005) A semi-automated method for measuring the potential for protein covalent binding in drug discovery. J. Pharmacol. Toxicol. Methods 52, 278-285.). Briefly, cryopreserved human hepatocytes are incubated in the presence of radiolabeled drug candidate in 24-well plates for a pre-determined period to allow sufficient turnover of the parent compound. Following the incubation period, samples are taken out and quenched by cold acetone in order to facilitate precipitation of proteins. […] After solubilization of proteins collected on filter papers, radioactive content and amount of protein is determined to give an estimate of pmol equivalent drug molecule bound per mg protein. In addition to assessing the extent of covalent binding, the turnover of the parent drug is quantified to give an estimate of fraction of metabolites leading to covalent binding (fCVB).
One aspect of the metabolic profile is the formation of reactive metabolites, where compounds of this invention in general are less prone to form such reactive metabolites. […] An fCVB value can then be calculated.

Compound | fCVB value (fraction of metabolites leading to covalent binding)
COc1ccc(-c2nnc(C(=O)N3CC(Oc4ccc(CN5CC6(CCOC6)C5)cc4)C3)o2)cc1 [Example 5, (3-(4-(6-oxa-2-azaspiro[3.4]octan-2-ylmethyl)phenoxy)azetidin-1-yl)(5-(4-methoxyphenyl)-1,3,4-oxadiazol-2-yl)methanone] | 0.0069
